In patent US11623919B2, “Heterocyclic P2X7 antagonists” (AXXAM S.P.A., priority 2017, dated 2023) one finds IC50 data, which are given here for 17 molecules.

Experiment [1] has as its target T1, P2X7 receptor (Rattus norvegicus, UniProt Q64663).
T1 construct: rP2X7 (IC50; nM); other: rP2X7; HEK-293 cells stably transfected with P2X7 receptor, Bz-ATP at EC80, Fluo-8 NW; potency
T1 sequence (Q64663 1-595): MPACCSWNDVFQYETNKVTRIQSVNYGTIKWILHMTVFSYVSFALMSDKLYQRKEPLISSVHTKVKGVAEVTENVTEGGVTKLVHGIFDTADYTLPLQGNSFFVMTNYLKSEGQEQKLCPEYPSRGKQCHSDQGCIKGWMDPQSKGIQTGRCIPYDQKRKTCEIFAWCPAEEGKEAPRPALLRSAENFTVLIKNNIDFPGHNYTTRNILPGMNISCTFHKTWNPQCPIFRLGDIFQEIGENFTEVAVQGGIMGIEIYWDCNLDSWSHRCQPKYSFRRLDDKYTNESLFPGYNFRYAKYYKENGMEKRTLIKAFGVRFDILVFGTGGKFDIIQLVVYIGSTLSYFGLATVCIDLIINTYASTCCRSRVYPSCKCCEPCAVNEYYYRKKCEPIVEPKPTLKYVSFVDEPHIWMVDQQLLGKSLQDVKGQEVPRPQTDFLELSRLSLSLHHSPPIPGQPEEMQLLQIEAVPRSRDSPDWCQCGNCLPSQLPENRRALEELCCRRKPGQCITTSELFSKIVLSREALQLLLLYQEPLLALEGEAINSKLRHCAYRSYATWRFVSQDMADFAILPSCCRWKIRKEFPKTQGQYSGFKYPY
As to the kind of experiment: Screen Quest Fluo-8 No Wash Calcium Assay (Bz-ATP evoked Ca2+ influx, FLIPR). It counts as cell-based. The conditions noted are these: rP2X7; HEK-293 cells stably transfected with P2X7 receptor, Bz-ATP at EC80, Fluo-8 NW; potency ranges A-D. The method in brief: (§1)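 Compounds were added to Fluo-8-loaded P2X7-transfected HEK-293 cells 5 min before an EC80 Bz-ATP challenge, and Ca2+ influx was then recorded for 3 min. Buffer held 0.3 mM Ca2+ and no Mg2+. Inhibition was normalised to A438079, giving IC50 values.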

The target in experiment [2] is T2, P2X7 receptor (Mus musculus, UniProt Q9Z1M0).
T2 construct: mP2X7 (IC50; nM); other: mP2X7; HEK-293 cells stably transfected with P2X7 receptor, Bz-ATP at EC80, Fluo-8 NW; potency
T2 sequence (Q9Z1M0 1-595): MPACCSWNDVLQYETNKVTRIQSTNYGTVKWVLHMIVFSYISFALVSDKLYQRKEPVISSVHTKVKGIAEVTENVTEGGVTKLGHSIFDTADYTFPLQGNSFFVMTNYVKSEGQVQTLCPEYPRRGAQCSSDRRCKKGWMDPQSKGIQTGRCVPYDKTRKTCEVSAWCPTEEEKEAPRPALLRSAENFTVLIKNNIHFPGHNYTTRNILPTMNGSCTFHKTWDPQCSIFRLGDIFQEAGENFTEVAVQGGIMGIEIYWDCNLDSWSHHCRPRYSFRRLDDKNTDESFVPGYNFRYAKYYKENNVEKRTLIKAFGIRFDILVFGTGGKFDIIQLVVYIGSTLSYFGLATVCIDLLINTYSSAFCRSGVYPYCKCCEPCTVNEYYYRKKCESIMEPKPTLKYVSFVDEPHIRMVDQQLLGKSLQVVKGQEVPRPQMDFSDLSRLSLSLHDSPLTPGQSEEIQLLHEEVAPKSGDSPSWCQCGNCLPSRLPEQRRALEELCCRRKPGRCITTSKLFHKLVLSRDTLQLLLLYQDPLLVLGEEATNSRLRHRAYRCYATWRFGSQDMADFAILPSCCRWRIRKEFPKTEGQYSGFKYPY
The experiment is described as above. It counts as cell-based. The note with it: mP2X7; HEK-293 cells stably transfected with P2X7 receptor, Bz-ATP at EC80, Fluo-8 NW; potency ranges A-D. The method in brief: as §1

One may read the IC50 as the midpoint of a concentration-inhibition curve. Consider `O=c1onc(Cc2c(F)cccc2Cl)n1CC1(F)CCCCC1` [Example 96, 3-[(2-chloro-6-fluorophenyl)methyl]-4-[(1-fluorocyclohexyl)methyl]-4,5-dihydro-1,2,4-oxadiazol-5-one], for which the IC50 in experiment [1] and in experiment [2] was 200 to 1000 nM throughout.
As to `O=c1onc(Cc2c(F)cccc2Cl)n1CC1CCCCC1(F)F` (stereo not shown) [Example 97, 3-[(2-chloro-6-fluorophenyl)methyl]-4-[(2,2-difluorocyclohexyl)methyl]-4,5-dihydro-1,2,4-oxadiazol-5-one], the IC50 in experiment [1] is less than 200 nM; in experiment [2], 200 to 1000 nM.
Consider `CC1(C)CCCCC1Cn1c(Cc2c(F)cccc2Cl)noc1=O` (stereo not shown) [Example 99, 3-[(2-chloro-6-fluorophenyl)methyl]-4-[(2,2-dimethylcyclohexyl)methyl]-4,5-dihydro-1,2,4-oxadiazol-5-one], for which the IC50 in experiment [1] and in experiment [2] was 200 to 1000 nM each time.
Regarding `O=c1onc(Cc2ccc(F)cc2Cl)n1CC1CCCCC1` [Example 114, 3-[(2-chloro-4-fluorophenyl)methyl]-4-(cyclohexylmethyl)-4,5-dihydro-1,2,4-oxadiazol-5-one], the half-maximal inhibitory concentration (IC50) was less than 200 nM in experiment [1] and 200 to 1000 nM in experiment [2].
In the case of `O=c1onc(Cc2cccc(Cl)c2Cl)n1CC1CCCCC1` [Example 115, 4-(cyclohexylmethyl)-3-[(2,3-dichlorophenyl)methyl]-4,5-dihydro-1,2,4-oxadiazol-5-one], the IC50 in experiment [1] was in the range of 200 to 1000 nM; in experiment [2] it was 1000 to 10000 nM.
For the molecule `O=c1onc(Cc2ccccc2C(F)(F)F)n1CC1CCCCC1` [Example 116, 4-(cyclohexylmethyl)-3-{[2-(trifluoromethyl)phenyl]methyl}-4,5-dihydro-1,2,4-oxadiazol-5-one], the concentration for half-maximal inhibition (IC50) lay within 200 to 1000 nM in experiment [1] and 1000 to 10000 nM in experiment [2].
For the molecule `O=c1onc(Cc2ccccc2Cl)n1CC1CCCCC1` [Example 117, 3-[(2-chlorophenyl)methyl]-4-(cyclohexylmethyl)-4,5-dihydro-1,2,4-oxadiazol-5-one], the IC50 in experiment [1] is less than 200 nM; in experiment [2], 200 to 1000 nM.
The corresponding values for `O=c1onc(Cc2ccc(Cl)cc2Cl)n1CC1CCCCC1` [Example 118, 4-(cyclohexylmethyl)-3-[(2,4-dichlorophenyl)methyl]-4,5-dihydro-1,2,4-oxadiazol-5-one] are 200 to 1000 nM and 1000 to 10000 nM.
On the same counts, the results for `O=c1onc(Cc2ccc(F)cc2F)n1CC1CCCCC1` [Example 119, 4-(cyclohexylmethyl)-3-[(2,4-difluorophenyl)methyl]-4,5-dihydro-1,2,4-oxadiazol-5-one] are less than 200 nM and 200 to 1000 nM.
For the molecule `O=c1onc(Cc2ccccc2F)n1CC1CCCCC1` [Example 120, 4-(cyclohexylmethyl)-3-[(2-fluorophenyl)methyl]-4,5-dihydro-1,2,4-oxadiazol-5-one], the half-inhibitory concentration (IC50) was less than 200 nM in experiment [1] and 200 to 1000 nM in experiment [2].
As for `O=c1onc(CC2CCCCC2)n1Cc1c(F)cccc1Cl` [Example 130, 4-[(2-chloro-6-fluorophenyl)methyl]-3-(cyclohexylmethyl)-4,5-dihydro-1,2,4-oxadiazol-5-one], the half-maximal inhibitory concentration (IC50) in experiment [1] was less than 200 nM; in experiment [2] it was 200 to 1000 nM.
On the same counts, the results for `O=c1onc(CC2CCC(F)(F)CC2)n1Cc1c(F)cccc1Cl` [Example 132, 4-[(2-chloro-6-fluorophenyl)methyl]-3-[(4,4-difluorocyclohexyl)methyl]-4,5-dihydro-1,2,4-oxadiazol-5-one] are less than 200 nM and less than 200 nM.
On the same counts, the results for `O=c1snc(Cc2c(F)cccc2Cl)n1CC1CCCCC1` [Example 140, 3-[(2-chloro-6-fluorophenyl)methyl]-4-(cyclohexylmethyl)-4,5-dihydro-1,2,4-thiadiazol-5-one] are 200 to 1000 nM and 1000 to 10000 nM.
On the same counts, the results for `O=c1snc(Cc2c(F)cccc2Cl)n1CC1CCC(F)(F)CC1` [Example 141, 3-[(2-chloro-6-fluorophenyl)methyl]-4-[(4,4-difluorocyclohexyl)methyl]-4,5-dihydro-1,2,4-thiadiazol-5-one] are less than 200 nM and less than 200 nM.
Consider `O=c1onc(Cc2c(F)cccc2Cl)n1CCC1CCCCC1` [Example 142, 3-(2-chloro-6-fluorobenzyl)-4-(2-cyclohexylethyl)-1,2,4-oxadiazol-5(4H)-one], for which the half-maximal inhibitory concentration (IC50) in experiment [1] and in experiment [2] was 200 to 1000 nM in each case.
As for `Cc1noc(C)c1Cc1noc(=O)n1CC1CCCCC1` [Example 210, 4-(cyclohexylmethyl)-3-[(dimethyl-1,2-oxazol-4-yl)methyl]-4,5-dihydro-1,2,4-oxadiazol-5-one], the figures for the half-maximal inhibitory concentration (IC50) in experiment [1] and in experiment [2] were 200 to 1000 nM and 1000 to 10000 nM, respectively.
On the same counts, the results for `Cc1noc(C)c1Cc1noc(=O)n1CC1CCC(F)(F)CC1` [Example 211, 4-[(4,4-difluorocyclohexyl)methyl]-3-[(dimethyl-1,2-oxazol-4-yl)methyl]-4,5-dihydro-1,2,4-oxadiazol-5-one] are 200 to 1000 nM and 1000 to 10000 nM.
